From article PMC12035797, “Peptidomimetics Activating the Proteasome: A New Perspective for Parkinson’s Treatment” (Journal of Medicinal Chemistry, 2025)
Where a SMILES comes first, the peptide text is derived from it. [ ]: non-standard residue; d: D form. N(4-MeOBn)Gly = COc1ccc(CNCC(=O)O)cc1; NMeY = CN[C@@H](Cc1ccc(O)cc1)C(=O)O; Gly(N-CH2CH2OH) = O=C(O)CNCCO; NMeK = CN[C@@H](CCCCN)C(=O)O; Nlys = NCCCCNCC(=O)O

How the values were obtained:
Assay type in all cases: biochemical
human 20S proteasome = system: T1, human 20S proteasome; test: h20S proteasome activity probed with FRET-type Dabcyl-EDANS substrate; settings: for h20S stimulating capacity, Dabcyl-EDANS: 1.0-50 μM modulator
T1 construct: human proteasome isolated from erythrocytes; from tissue; host or cells: human erythrocytes
Description: (§1) To assess the influence of substitutions increasing proteolytic stability on the modulators’ capacity to stimulate chymotrypsin-like, trypsin-like, and caspase-like activity of h20S, we used classic fluorogenic substrates: Suc-LLVY-AMC, Boc-LRR-AMC, and Z-LLE-AMC, respectively. To confirm the observed stimulating capacity, we also conducted assays using a FRET-type reporter peptide with a sequence consisting of 11 residues (Lys(Dabcyl)-[…]EDANS)-Gly).[27] As we checked, the activated 20S hydrolyzed this substrate after more than one residue (Lys, Gly, and Glu), which makes it a probe better reflecting the concerted action of the proteasome’s three peptidases. […] The discrepancy in the level of activation was mainly due to the greater sensitivity of the FRET substrate, as it is not digested, unlike the AMC-based probes, by the latent proteasome, which results in greater differences in fluorescence relative to the controls. […] The ability to affect individual peptidases of the proteasome in different ways is most likely related to the allosteric mechanism of action of the modulators. Binding at a site distant from the catalytic compartment may result in greater diversity in the pathways by which the signal reaches active sites and differential effects of that signal on each peptidase.
(§2) The effect of all synthesized peptidomimetics on the catalytic activity of the proteasome was tested using a human proteasome isolated from erythrocytes. Suc-LLVY-AMC, Boc-LRR-AMC, and Z-LLE-AMC fluorogenic substrates (Bachem, Bubendorf, Switzerland) were used for assessment of the chymotrypsin-, trypsin-, and caspase-like activities, respectively. A homemade FRET-type substrate Dabcyl-EDANS (Lys(Dabcyl)-[…]EDANS)-Gly)[26] was used as an additional probe. Stock solutions of the substrates and tested peptidomimetics were prepared in dimethyl sulfoxide (DMSO), ensuring that the final concentration of DMSO in all samples remained consistent at 2%. The small fluorogenic substrates were used at a final concentration of 100 μM, while Dabcyl-EDANS was prepared at a final concentration of 15 μM. Modulators were tested in concentrations ranging from 1.0 to 50 μM, with compounds containing TAT or 6R sequences tested at lower concentrations ranging from 0.5 to 10 μM. Activity tests were conducted in 96-well plates using 50 mM Tris/HCl, pH 8.0, as an assay buffer. The final concentration of h20S proteasome was adjusted to 0.002 mg/mL (2.8 nM). The fluorescence of released aminomethylcoumarin (AMC) was monitored at 460 nm (λex was 380 nm), while the hydrolysis of Dabcyl-EDANS was detected by measuring emission at 493 nm (λex was set at 335 nm). Fluorescence measurements were taken continuously every 2 min over a 60 min period at 37 °C using a Tecan Infinite M200Pro spectrofluorometer (Tecan Trading AG, Männedorf, Switzerland). All activity assays were performed in at least three independent replicates. The relative activity was calculated in relation to the catalytic activity of the vehicle (DMSO)-treated latent proteasome, which was regarded as 100%. Statistical analysis was performed using the one-way ANOVA followed by Tukey’s post-hoc test. P-value <0.05 was considered statistically significant.

[1] = system: T2, human 20S proteasome, ChT-L peptidase; test: Chymotrypsin-like (ChT-L) activity of h20S probed with Suc-LLVY-AMC
T2 construct: human proteasome isolated from erythrocytes; from tissue; host or cells: human erythrocytes
Method: (§3) To assess the influence of substitutions increasing proteolytic stability on the modulators’ capacity to stimulate chymotrypsin-like, trypsin-like, and caspase-like activity of h20S, we used classic fluorogenic substrates: Suc-LLVY-AMC, Boc-LRR-AMC, and Z-LLE-AMC, respectively.
as §2, with “Modulators were tested in concentrations ranging from 1.0 to 50 μM, with compounds containing TAT or 6R sequences tested at lower concentrations ranging from 0.5 to 10 μM.” left out

[2] = system: T3, human 20S proteasome, C-L peptidase; test: Caspase-like (C-L) activity of h20S probed with Z-LLE-AMC; settings: 100 μM Z-LLE-AMC
T3 construct: human proteasome isolated from erythrocytes; from tissue; host or cells: human erythrocytes
Description: as §1, §2

[3] = system: T4, human 20S proteasome, T-L peptidase; test: Trypsin-like (T-L) activity of h20S probed with Boc-LRR-AMC; settings: 100 μM Boc-LRR-AMC
T4 construct: human proteasome isolated from erythrocytes; from tissue; host or cells: human erythrocytes
Method: as §3
as §2, with “Modulators were tested in concentrations ranging from 1.0 to 50 μM, with compounds containing TAT or 6R sequences tested at lower concentrations ranging from 0.5 to 10 μM.” left out

[4] = 100 μM Suc-LLVY-AMC, whole concentration range

Compound | h20S stimulating capacity, Dabcyl-EDANS (human 20S proteasome; 15 μM Dabcyl-EDANS) | ChT-L stimulating capacity, Suc-LLVY-AMC [1, 4] | stimulation of h20S activity, Dabcyl-EDANS probe (human 20S proteasome; 15 μM Dabcyl-EDANS, level reached vs latent proteasome) [fold] | h20S stimulating potency, Dabcyl-EDANS (human 20S proteasome; at the lowest concentrations) | stimulation of h20S activity, Suc-LLVY-AMC probe ([1]; 100 μM Suc-LLVY-AMC, level reached vs latent proteasome) [fold] | C-L stimulating capacity, Z-LLE-AMC [2] | T-L stimulating capacity, Boc-LRR-AMC [3] | ChT-L stimulating capacity, Suc-LLVY-AMC ([1]; at higher concentrations) | ChT-L stimulating capacity, Suc-LLVY-AMC ([1]; at 1 μM concentration)
C[C@@H](O)[C@H](NC(=O)[C@H](Cc1ccccc1)NC(=O)[C@H](Cc1ccc(O)cc1)NC(=O)[C@@H](N)CCCCN)C(=O)NCC(=O)N[C@@H](CO)C(=O)N[C@@H](CCCCN)C(=O)N[C@@H](CC(=O)O)C(=O)N[C@@H](Cc1c[nH]c2ccccc12)C(=O)N[C@@H](CCCNC(=N)N)C(=O)N(CCO)CC(=O)N[C@@H](Cc1ccc(O)cc1)C(=O)N[C@@H](Cc1ccc(O)cc1)C(=O)N[C@@H](CO)C(=O)O [1b] (H-KYFTGSKDWR[Gly(N-CH2CH2OH)]YYS-OH) | less strongly than 1 | lower capacity of activating h20S |  |  |  |  |  |  | 
CN[C@@H](CCCCN)C(=O)N(C)[C@@H](Cc1ccc(O)cc1)C(=O)N[C@@H](Cc1ccccc1)C(=O)N[C@H](C(=O)NCC(=O)N[C@@H](CO)C(=O)N[C@@H](CCCCN)C(=O)N[C@@H](CC(=O)O)C(=O)N[C@@H](Cc1c[nH]c2ccccc12)C(=O)N[C@@H](CCCNC(=N)N)C(=O)N[C@@H](CO)C(=O)N[C@@H](Cc1ccc(O)cc1)C(=O)N[C@@H](Cc1ccc(O)cc1)C(=O)N[C@@H](CO)C(=O)O)[C@@H](C)O [1e] (H-[NMeK][NMeY]FTGSKDWRSYYS-OH) | did not lose their ability to effectively stimulate h20S |  | 12 | even more potent than 1 | 8 |  |  |  | 
C[C@@H](O)[C@H](NC(=O)[C@H](Cc1ccccc1)NC(=O)[C@H](Cc1ccc(O)cc1)NC(=O)[C@@H](N)CCCCN)C(=O)NCC(=O)N[C@@H](CO)C(=O)N(CCCCN)CC(=O)N[C@@H](CC(=O)O)C(=O)N[C@@H](Cc1ccc(O)cc1)C(=O)N[C@@H](CCCNC(=N)N)C(=O)N[C@@H](CCCNC(=N)N)C(=O)N[C@@H](Cc1ccc(O)cc1)C(=O)N[C@@H](Cc1ccc(O)cc1)C(=O)N[C@@H](CO)C(=O)O [2b] (H-KYFTGS[Nlys]DYRRYYS-OH) | comparable stimulatory capacity |  |  |  |  | comparable stimulatory capacity | comparable stimulatory capacity | efficiency comparable to 2 and 2a | 
C[C@@H](O)[C@H](NC(=O)[C@H](Cc1ccccc1)NC(=O)[C@H](Cc1ccc(O)cc1)NC(=O)CNCCCCN)C(=O)NCC(=O)N[C@@H](CO)C(=O)N(CCCCN)CC(=O)N[C@@H](CC(=O)O)C(=O)N[C@@H](Cc1ccc(O)cc1)C(=O)N[C@@H](CCCNC(=N)N)C(=O)N[C@@H](CCCNC(=N)N)C(=O)N[C@@H](Cc1ccc(O)cc1)C(=O)N[C@@H](Cc1ccc(O)cc1)C(=O)N[C@@H](CO)C(=O)O [2c] (H-[Nlys]YFTGS[Nlys]DYRRYYS-OH) | comparable stimulatory capacity |  |  |  |  | comparable stimulatory capacity | comparable stimulatory capacity | efficiency comparable to 2 and 2a | same moderate efficiency
COc1ccc(CN(CC(=O)N[C@@H](Cc2ccccc2)C(=O)N[C@H](C(=O)NCC(=O)N[C@@H](CO)C(=O)N[C@@H](CCCCN)C(=O)N[C@@H](CC(=O)O)C(=O)N[C@@H](Cc2ccc(O)cc2)C(=O)N[C@@H](CCCNC(=N)N)C(=O)N[C@@H](CCCNC(=N)N)C(=O)N[C@@H](Cc2ccc(O)cc2)C(=O)N[C@@H](Cc2ccc(O)cc2)C(=O)N[C@@H](CO)C(=O)O)[C@@H](C)O)C(=O)[C@@H](N)CCCCN)cc1 [2d] (H-K[N(4-MeOBn)Gly]FTGSKDYRRYYS-OH) | comparable stimulatory capacity |  |  |  |  | comparable stimulatory capacity | comparable stimulatory capacity | as inefficient as 2e | same moderate efficiency
COc1ccc(CN(CC(=O)N[C@@H](CCCNC(=N)N)C(=O)N[C@@H](CCCNC(=N)N)C(=O)N[C@@H](Cc2ccc(O)cc2)C(=O)N[C@@H](Cc2ccc(O)cc2)C(=O)N[C@@H](CO)C(=O)O)C(=O)[C@H](CC(=O)O)NC(=O)[C@H](CCCCN)NC(=O)[C@H](CO)NC(=O)CNC(=O)[C@@H](NC(=O)[C@H](Cc2ccccc2)NC(=O)[C@H](Cc2ccc(O)cc2)NC(=O)[C@@H](N)CCCCN)[C@@H](C)O)cc1 [2e] (H-KYFTGSKD[N(4-MeOBn)Gly]RRYYS-OH) | least effective stimulants | least effective stimulants |  |  |  | weakest activators | weakest activators |  | 
H-KYFTGSKDYRRYYS-OH [compound 2] | most effective h20S stimulators | most effective h20S stimulators |  |  |  |  |  |  | 
RKKRRQRRR [tat, fragment of the HIV-1 Tat 48–58 peptide used as cell-penetrating peptide, tested alone as control, reference compound] |  | proteasome inhibition |  |  |  |  |  |  | 
